According to patent publication US9950026B2, “Methods for reducing oxidative damage” (Cornell Research Foundation, Inc., priority 2004, dated 2018):
Entries after “also recorded” stand apart in the source; their conditions may differ. Where a SMILES comes first, the peptide text is derived from it. [ ]: non-standard residue; d: D form. Dmt = Cc1cc(O)cc(C)c1C[C@H](N)C(=O)O

Columns and labels:
N2A cells [1] = assay: Intracellular ROS (DCF fluorescence) in cells treated with tBHP; format: cell-based, murine; settings: for EC50, reduction of intracellular ROS / intracellular ROS: tBHP 0.5 or 1 mM 40 min, then peptide 4 hr
Procedure: FIG. 22A-22C. […] (A) N2A cells were loaded with DCFDA, and then exposed to 100 μM tBHP alone, or with SS-31. Intracellular ROS was quantified by the formation of fluorescent DCF. Results shown are mean values (n=3). (B)(a-c) N2A cells were plated in glass bottom dishes and treated with 50 μM tBHP, alone or with 1 nM SS-31, for 6 h. Cells were loaded with DCFDA (10 μM) and imaged by confocal laser scanning microscopy using ex/em of 495/525 nm. (C) Effect of 1 nM SS-31 in reducing intracellular ROS induced by 50 μM tBHP (*P<0.001 compared to untreated cells; *P<0.05 compared to tBHP alone).
(§1) Cells were washed twice and replaced with medium alone or medium containing varying concentrations of SS-02 or SS-31 for 4 hr. Intracellular ROS was measured by carboxy-H2DCFDA (Molecular Probes, Portland, Oreg.). Cell death was assessed by a cell proliferation assay (MTS assay, Promega, Madison, Wis.).
Intracellular ROS was evaluated using the fluorescent probe DCFH-DA (5-(and -6)-carboxy-2′,7′-dichlorodihydrofluorescein diacetate). DCFH-DA enters cells passively and is then deacetylated to nonfluorescent DCFH. DCFH reacts with ROS to form DCF, the fluorescent product. N2A cells in 96 sell plates were washed with HBSS and loaded with 10 μM of DCFDA for 30 min. […]. at 37° C. Cells were washed 3 times with BSS and exposed to 0.1 mM of t-BHP, alone or with SS-31. The oxidation of DCF was monitored in real time by a fluorescence microplate reader (Molecular Devices) using 485 nm for excitation and 530 nm for emission.
N2A cells in glass bottom dish were treated with 0.1 mM t-BHP, alone or with 1 nM SS-31, for 6 h. Cells were then loaded with 10 μm of dichlorofluorescin (ex/em=485/530) for 30 min at 37° C., 5% CO2. Then cells were subjected 3 times wash with HBSS and stained with 20 nM of Mitotracker TMRM (ex/em=550/575 nm) for 15 min at 37° C. and examined by confocal laser scanning microscopy.

[2] = system: isolated mouse liver mitochondria; assay: H2O2 production by isolated mitochondria, luminol chemiluminescence; format: biochemical; settings: for amount of H2O2 generated (AUC over 20 min): spontaneous, SS peptides 100 μM
Procedure: Because mitochondria are a major source of ROS production, the effect of SS-02 on H2O2 formation in isolated mitochondria under basal conditions as well as after treatment with antimycin, a complex III inhibitor was examined. Livers were harvested from mice and homogenized in ice-cold buffer and centrifuged at 13800×g for 10 m. The pellet was washed once and then re-suspended in 0.3 ml of wash butter and placed on ice until use H2O2 was measured using luminol chemiluminescence as described previously (Y. Li, H. Zhu, M. A. Trush, Biochim. Biophys. Acta 1428, 1-12 (1999)). 0.1 mg mitochondrial protein was added to 0.5 ml potassium phosphate buffer (100 mM, pH 8.0) in the absence or presence of SS peptides (100 μM). 25 mM luminol and 0.7 IU horseradish peroxidase were added, and chemilumunescence was monitored with a Chronolog Model 560 aggregometer (Havertown, Pa.) for 20 min at 37° C. The amount of H2O2 produced was quantified as the area under the curve (AUC) over 20 min, and all data were normalized to AUC produced by mitochondria alone.
H2O2 was measured using luminol chemiluminescence as described previously (Y, Li, H. Zhu, M. A. Trush, Biochim. Biophys. Acta 1428, 1-12 (1999)). 0.1 mg mitochondrial protein was added to 0.5 ml potassium phosphate buffer (100 mM, pH 8.0) in the absence or presence of SS-31. 25 mM luminol and 0.7 IU horseradish peroxidase were added, and chemilumunescence was monitored with a Chronolog Model 560 aggregometer (Havertown, Pa.) for 20 min at 37° C. The amount of H2O2 produced was quantified as the area under the curve (AUC) over 20 min, and all data were normalized to AUC produced by mitochondria alone.

N2A cells [3] = assay: Cell viability, MTS assay, cells treated with tBHP; format: cell-based, murine; settings: for EC50, increase of cell survival / cell survival (MTS): tBHP 0.5 or 1 mM 40 min, then peptide 4 hr
Procedure: as §1
Neuronal N2A and SH-SY5Y cells were plated in 96-well plate at a density of 1×10^4/well and allowed to grow for 2 days before treatment with t-butyl hydroperoxide (tBHP) (0.05-0.1 mM) with or without SS-31 (10^−12 M to 10^−9 M for 24 h. Cell death was assessed by a cell proliferation assay (MTS assay, Promega, Madison, Wis.).

[4] = Linoleic acid peroxidation induced by ABAP (conjugated dienes); settings: for rate of linoleic acid peroxidation (slope of diene formation): peptides 100 μM
[5] = system: isolated guinea pig hearts; assay: HNE-modified proteins in isolated hearts, brief ischemia-reperfusion (Langendorff); settings: 100 nM SS-02, 1 nM SS-31
Procedure: Isolated guinea pig hearts were perfused in a retrograde manner in a Langendorff apparatus and subjected to various intervals of ischemia-reperfusion. Hearts were then fixed immediately and embedded in paraffin. Immunohistochemical analysis of 4-hydroxy-2-nonenol (HNE)-modified proteins in the paraffin sections was carried out using an anti-HNE antibody.
(A) Immunohistochemical analysis of 4-hydroxy-2-nonenol (HNE)-modified proteins in paraffin sections from guinea pig hearts aerobically perfused 30 min with (a) buffer; (b) 100 nM SS-02; (c) 100 nM SS-20 and (d) 1 nM SS-31, then subjected to 30 min ischemia and reperfused for 90 min with same peptides. Tissue slices were incubated with […] antibody. (e) Background control: staining without primary antibody.
(B) Immunohistochemical analysis of HNE-modified proteins in paraffin sections from guinea pig hearts aerobically perfused 30 min with buffer; then subjected to 30 min ischemia and reperfused with (a) buffer; (b) 100 nM SS-02; (c) 100 nM SS-20 and (d) 1 nM SS-31 for 90 min with same peptides. Tissue slices were incubated with anti-HNE antibody. (e) Background control staining without primary antibody.

[6] = system: Human LDL (low density lipoprotein); assay: LDL oxidation induced by CuSO4 (conjugated dienes); format: biochemical; settings: for rate of LDL oxidation (rate of formation of conjugated dienes): peptides 100 μM
Procedure: Human LDL (low density lipoprotein) was prepared fresh from stored plasma. LDL oxidation was induced catalytically by the addition of […] CuSO4, and the formation of conjugated dienes was monitored at […] for 5 h at 37° C. (B. Moosmann and C. Behl, Mol Pharmacol., 61, 260-268 (2002)).

[7] = peptide only during 90 min reperfusion
[8] = peptide perfused 30 min before 30 min ischemia and during 90 min reperfusion

Molecule	EC50, reduction of intracellular ROS (N2A cells [1])	intracellular ROS (N2A cells [1])	amount of H2O2 generated (AUC over 20 min) [2]	EC50, increase of cell survival (N2A cells [3])	cell survival (MTS) (N2A cells [3])	rate of linoleic acid peroxidation (slope of diene formation) [4]	peroxidation of linoleic acid ([4]; varying concentrations)	lipid peroxidation (HNE-modified proteins) [5, 7]	lipid peroxidation (HNE-modified proteins) [5, 8]	rate of LDL oxidation (rate of formation of conjugated dienes) [6]	rate of LDL oxidation ([6]; varying concentrations, 10 mM CuSO4)	DCF fluorescence (fluorescent microscopy) (N2A cells [1]; 50 μM tBHP, 1 nM SS-31, 6 h)	reduction of ROS production (N2A cells [1]; 100 μM tBHP, 1 nM SS-31)	rate of ROS accumulation/production (N2A cells [1]; 0.1 mM (100 μM) t-BHP, over 4 h)	ROS accumulation (DCF fluorescence, confocal) (N2A cells [1]; 0.1 mM t-BHP, 1 nM SS-31, 6 h)	production of H2O2 induced by antimycin ([2]; dose response)	spontaneous production of H2O2 ([2]; dose response)	concentration achieving complete protection against t-BHP (N2A cells [3]; t-BHP 0.05-0.1 mM, 24 h)	t-BHP-induced cytotoxicity (N2A cells [3]; t-BHP 0.05-0.1 mM, 24 h, concurrent treatment)
2′,6′-Dmt-Arg-Phe-Lys-NH2 [SS-02]	nM range	dose-dependently reduced intracellular ROS	significantly reduced	nM range	increased cell survival	reduced the rate of linoleic acid peroxidation	dose-dependently inhibited	reduced lipid peroxidation	reduced lipid peroxidation	reduced rate of LDL oxidation	dose-dependently inhibited								
Cc1cc(O)cc(C)c1C[C@H](NC(=O)[C@H](N)CCCNC(=N)N)C(=O)N[C@@H](CCCCN)C(=O)N[C@@H](Cc1ccccc1)C(N)=O [SS-31, D-Arg-2′6′-Dmt-Lys-Phe-NH2] (H-[dR][Dmt]KF-NH2; N-terminus assumed)	nM range	dose-dependently reduced intracellular ROS	significantly reduced	nM range	increased cell survival	reduced the rate of linoleic acid peroxidation		reduced lipid peroxidation	reduced lipid peroxidation	reduced rate of LDL oxidation		significantly reduced	> 50%	dose-dependently inhibited; also recorded: dose-dependently reduced	reduced ROS accumulation	dose-dependently reduced	dose-dependently reduced	1 nM	dose-dependent reduction
